Experimental data published in PubChem BioAssay (NCI).
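A five-concentration, 48-hour dose response in 96-well plates underlies each endpoint, interpolated linearly between surrounding concentrations. Definition used: TGI = concentration required for complete inhibition of growth.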

How the values were obtained:
Assay in all cases: inhibition of tumour cell growth, NCI panel, 48 h
[1] = system: OVCAR-3 ovarian
[2] = system: MOLT-4 leukemia
[3] = system: SK-MEL-28 melanoma
[4] = system: LOX IMVI melanoma
[5] = system: IGROV1 ovarian
[6] = system: SW-620 colon
[7] = system: A498 renal
[8] = system: HT29 colon
[9] = system: OVCAR-8 ovarian
[10] = system: UACC-62 melanoma
[11] = system: KM12 colon
[12] = system: HCC-2998 colon
[13] = system: NCI-H460 lung
[14] = system: TK-10 renal
[15] = system: MCF7 breast
[16] = system: RXF 393 renal
[17] = system: EKVX NSCLC
[18] = system: NCI-H23 lung
[19] = system: OVCAR-5 ovarian
[20] = system: SNB-75 CNS
[21] = system: HCT-15 colon
[22] = system: CAKI-1 renal
[23] = system: HS 578T breast
[24] = system: HOP-92 NSCLC
[25] = system: UACC-257 melanoma
[26] = system: SK-MEL-2 melanoma
[27] = system: SK-OV-3 ovarian
[28] = system: PC-3 prostate
[29] = system: MDA-MB-435
[30] = system: SF-295 CNS
[31] = system: SN12C renal
[32] = system: SR leukemia
[33] = system: M14 melanoma
[34] = system: MALME-3M melanoma
[35] = system: HL-60(TB) leukemia
[36] = system: SNB-19 CNS
[37] = system: HOP-62 NSCLC
[38] = system: NCI/ADR-RES ovarian
[39] = system: 786-0 renal
[40] = system: A549 NSCLC
[41] = system: HCT-116 colon
[42] = system: MDA-MB-231 breast
[43] = system: CCRF-CEM leukemia
[44] = system: UO-31 renal
[45] = system: SK-MEL-5 melanoma
[46] = system: U251 CNS
[47] = system: OVCAR-4 ovarian
[48] = system: COLO 205 colon
[49] = system: NCI-H226 lung
[50] = system: K-562 leukemia
[51] = system: BT-549 breast
[52] = system: MDA-N
[53] = system: ACHN renal
[54] = system: SF-539 CNS
[55] = system: RPMI-8226 leukemia
[56] = system: T-47D breast
[57] = system: DU-145 prostate
[58] = system: NCI-H522 lung
[59] = system: SF-268 CNS

NC(=S)N=Nc1c(O)[nH]c2c(Cl)cc(Cl)cc12
TGI [1]: 34.8 µM
TGI [2]: 67.8 µM
TGI [3]: 29.6 µM
TGI [4]: 48 µM
TGI [5]: > 100 µM
TGI [6]: > 100 µM
TGI [7]: > 100 µM
TGI [8]: 42 µM
TGI [9]: 40.8 µM
TGI [10]: 34.1 µM
TGI [11]: 42.2 µM
TGI [12]: > 100 µM
TGI [13]: > 100 µM
TGI [14]: > 100 µM
TGI [15]: > 100 µM
TGI [16]: 33.7 µM
TGI [17]: > 100 µM
TGI [18]: > 100 µM
TGI [19]: > 100 µM
TGI [20]: 42.4 µM
TGI [21]: > 100 µM
TGI [22]: > 100 µM
TGI [23]: 72.5 µM
TGI [24]: > 100 µM
TGI [25]: 86.2 µM
TGI [26]: 34.8 µM
TGI [27]: > 100 µM
TGI [28]: 81.1 µM
TGI [29]: 34 µM
TGI [30]: 46.6 µM
TGI [31]: 52.8 µM
TGI [32]: 70.4 µM
TGI [33]: 32.3 µM
TGI [34]: 35.2 µM
TGI [35]: 49.6 µM
TGI [36]: > 100 µM
TGI [37]: 49.4 µM
TGI [38]: 38.7 µM
TGI [39]: 92.9 µM
TGI [40]: > 100 µM
TGI [41]: 40.5 µM
TGI [42]: 50.2 µM
TGI [43]: > 100 µM
TGI [44]: > 100 µM
TGI [45]: 28.2 µM
TGI [46]: 40.9 µM
TGI [47]: > 100 µM
TGI [48]: 41.8 µM
TGI [49]: 30.3 µM
TGI [50]: > 100 µM
TGI [51]: 50.4 µM
TGI [52]: 35.1 µM
TGI [53]: > 100 µM
TGI [54]: 34.6 µM

O=C(O)C(O)(c1ccc(-c2ccccc2)cc1)c1ccc(-c2ccccc2)cc1
TGI [1]: 30.3 µM
TGI [2]: > 100 µM
TGI [3]: > 100 µM
TGI [4]: 31.8 µM
TGI [5]: 57.3 µM
TGI [6]: > 100 µM
TGI [7]: 43.5 µM
TGI [8]: > 100 µM
TGI [9]: > 100 µM
TGI [10]: 36.7 µM
TGI [11]: 40.9 µM
TGI [13]: 45.9 µM
TGI [55]: > 100 µM
TGI [56]: > 100 µM
TGI [14]: > 100 µM
TGI [16]: 51.6 µM
TGI [17]: 70.9 µM
TGI [57]: 40.6 µM
TGI [18]: 36.2 µM
TGI [19]: 77.8 µM
TGI [20]: 48.2 µM
TGI [21]: 41.5 µM
TGI [22]: > 100 µM
TGI [24]: 41.4 µM
TGI [25]: > 100 µM
TGI [26]: 30.6 µM
TGI [58]: 47.5 µM
TGI [28]: 70 µM
TGI [29]: 43.7 µM
TGI [30]: 68.8 µM
TGI [31]: 60.7 µM
TGI [32]: > 100 µM
TGI [33]: > 100 µM
TGI [34]: 60.4 µM
TGI [35]: 49.7 µM
TGI [36]: > 100 µM
TGI [37]: 46.3 µM
TGI [38]: 61.2 µM
TGI [39]: 80.4 µM
TGI [40]: > 100 µM
TGI [41]: 62.2 µM
TGI [42]: 79.1 µM
TGI [44]: > 100 µM
TGI [45]: 37.4 µM
TGI [46]: 32.7 µM
TGI [47]: > 100 µM
TGI [59]: 57.8 µM
TGI [49]: 62.6 µM
TGI [50]: > 100 µM
TGI [51]: 42.7 µM
TGI [52]: 34.5 µM
TGI [53]: 94.7 µM

O=C(c1cccc2ccccc12)C1S(=O)(=O)OCCOS1(=O)=O
TGI [1]: > 100 µM
TGI [2]: > 100 µM
TGI [3]: > 100 µM
TGI [8]: > 100 µM
TGI [9]: > 100 µM
TGI [11]: > 100 µM
TGI [12]: > 100 µM
TGI [13]: > 100 µM
TGI [55]: > 100 µM
TGI [14]: > 100 µM
TGI [15]: > 100 µM
TGI [17]: > 100 µM
TGI [57]: > 100 µM
TGI [18]: > 100 µM
TGI [19]: > 100 µM
TGI [21]: > 100 µM
TGI [22]: > 100 µM
TGI [26]: > 100 µM
TGI [28]: > 100 µM
TGI [30]: 0.0412 µM
TGI [31]: > 100 µM
TGI [32]: > 100 µM
TGI [33]: > 100 µM
TGI [34]: > 100 µM
TGI [35]: > 100 µM
TGI [36]: > 100 µM
TGI [37]: > 100 µM
TGI [38]: > 100 µM
TGI [39]: > 100 µM
TGI [40]: > 100 µM
TGI [41]: > 100 µM
TGI [42]: > 100 µM
TGI [43]: > 100 µM
TGI [44]: > 100 µM
TGI [45]: > 100 µM
TGI [46]: > 100 µM
TGI [47]: > 100 µM
TGI [48]: > 100 µM
TGI [50]: > 100 µM
TGI [51]: > 100 µM
TGI [52]: > 100 µM
TGI [53]: > 100 µM

COc1cc2c(cc1OC)C1c3ccccc3CCN1CCC2 (stereo not drawn)
TGI [1]: > 100 µM
TGI [2]: > 100 µM
TGI [3]: > 100 µM
TGI [4]: > 100 µM
TGI [5]: > 100 µM
TGI [6]: > 100 µM
TGI [8]: > 100 µM
TGI [9]: > 100 µM
TGI [10]: > 100 µM
TGI [11]: > 100 µM
TGI [12]: > 100 µM
TGI [55]: > 100 µM
TGI [56]: > 100 µM
TGI [14]: > 100 µM
TGI [15]: > 100 µM
TGI [17]: > 100 µM
TGI [57]: > 100 µM
TGI [19]: > 100 µM
TGI [20]: > 100 µM
TGI [21]: > 100 µM
TGI [22]: > 100 µM
TGI [25]: > 100 µM
TGI [27]: > 100 µM
TGI [28]: > 100 µM
TGI [29]: > 100 µM
TGI [30]: > 100 µM
TGI [31]: > 100 µM
TGI [32]: > 100 µM
TGI [33]: > 100 µM
TGI [34]: > 100 µM
TGI [35]: > 100 µM
TGI [36]: > 100 µM
TGI [37]: > 100 µM
TGI [38]: > 100 µM
TGI [39]: > 100 µM
TGI [40]: > 100 µM
TGI [41]: > 100 µM
TGI [42]: > 100 µM
TGI [43]: > 100 µM
TGI [44]: > 100 µM
TGI [45]: > 100 µM
TGI [46]: > 100 µM
TGI [59]: > 100 µM
TGI [48]: > 100 µM
TGI [49]: > 100 µM
TGI [50]: > 100 µM
TGI [51]: 81.4 µM
TGI [52]: > 100 µM
TGI [53]: > 100 µM
TGI [54]: > 100 µM
